One series concerns SHP-77 tumors. The series can be described thus: Ex vivo biodistribution of radiolabeled peptides in nude mice bearing SHP-77 tumors. As to conditions: [177Lu]Lu labelling, nude mice bearing SHP-77 tumors (n = 3), 24 hours post-injection. On the procedure:
Mice were intravenously injected (via the lateral tail vein) with a bolus dose of the radiolabeled peptides for ex vivo biodistribution studies when tumor volumes were in range of 200-400 mm^3 for xenograft mice and when age of the mice was 5-7 weeks for tumor naïve mice studies. To assess the amount of radionuclide injected into individual mice the syringe was assayed in a dose calibrator before and after injection for [^177Lu]Lu-peptide.
Mice were euthanized at pre-determined time points and selected tissues were resected and collected into pre-weighed tubes. The tubes were then reweighed post resection, the difference giving the weight of each tissue. Radioactivity in each tissue was measured using a gamma counter. Counts were decay corrected to the time of injection and percentage of injected activity per gram (% IA/g) was calculated for each tissue based on the injected activity into each individual mouse. Injected activity was converted to counts based on the sensitivity of the gamma counter. The counts in tissue were then converted to the percentage of injected activity and this was divided by the mass of tissue to give % IA/g.

Another series concerns CT26.DLL3 cells. The series can be described thus: Cell binding (total uptake) of [177Lu]Lu-test peptide, CT26.DLL3 cells. As to conditions: 1 hour at 37° C. Type of series: cell-based. On the procedure:
[^177Lu]LuCl3 was received from venders in HCl solution. For every mCi of [^177Lu]LuCl3 added to the reaction vial (1.5 mL Eppendorf vial), ammonium acetate buffer (0.2 M, pH 4.9, 100 μL, containing 1% w/v ascorbic acid and 6% v/v ethanol) and peptide conjugate (1 nmol). A peptide conjugate of the present disclosure is also referred to herein as a “chelator-peptide”. The pH of the solution was determined to be approximately 5 by using pH strips. The reaction vial was incubated at 80° C., 700 RPM for 17-20 minutes. A sample from the reaction was analyzed by RP-HPLC using an Agilent Infinity II 1260 HPLC to determine reaction completion and radiochemical purity of [^177Lu]Lu-chelator-peptide. HPLC conditions: Waters XBridge BEH C18 Column, 130 Å, 3.5 um, 4.6 mm×250 mm; mobile phase: Solvent A=water (with 0.1% formic acid), solvent B=acetonitrile (with 0.1% formic acid). Gradients: 25-45% B in 10 minutes, 45-65% B in 12 minutes, 65-90% in 6 minutes at a flow rate of 0.5 mL/minute. Required amounts of the product was formulated in 1% PBSA for cell studies.
The study was conducted using SHP-77, CT26.WT, and CT26.DLL3 cells (Table 7) Adherent cell studies: The cells were cultured in appropriate culture media (20 mL) in tissue culture treated T150 flasks at 37° C. and 5% CO2. Adherent cells were detached (60-70% confluent) using 5 mL Versene at 37° C. for 3 minutes. After confirming the viability using countess and count of detached cells using Trypan blue, the cells were centrifuged at 4° C. for 5 minutes (1,000 rpm). The cell pellet obtained was washed once with PBS and resuspended in 1% PBSA to obtain the desired cell concentration (5-25 million cells/mL).
Cell numbers used for the assay were in the range of 5 million cells/condition −25 million cells/condition.
Total uptake: Cells were incubated with 300 μL (0.8 μCi) of the incubation buffer (containing radiolabeled peptide [^177Lu] Lu-test peptide) for 1 hour at 37° C. (Table 8). Post incubation, the cells were pelleted and washed 2 times using cold PBS+1% BSA. The supernatant and washes were combined and counted together as “unbound fraction” in a gamma counter. The cells were then resuspended in 300 μL of 1% PBS+1% BSA and counted in the gamma counter as “bound fraction”.
In these Tables, “A” represents %≤25; “B” represents 25<%≤50; “C” represents %>50.

The target in the next series is T1, human DLL3 (Homo sapiens, UniProt Q9NYJ7).
T1 sequence (Q9NYJ7 27-618): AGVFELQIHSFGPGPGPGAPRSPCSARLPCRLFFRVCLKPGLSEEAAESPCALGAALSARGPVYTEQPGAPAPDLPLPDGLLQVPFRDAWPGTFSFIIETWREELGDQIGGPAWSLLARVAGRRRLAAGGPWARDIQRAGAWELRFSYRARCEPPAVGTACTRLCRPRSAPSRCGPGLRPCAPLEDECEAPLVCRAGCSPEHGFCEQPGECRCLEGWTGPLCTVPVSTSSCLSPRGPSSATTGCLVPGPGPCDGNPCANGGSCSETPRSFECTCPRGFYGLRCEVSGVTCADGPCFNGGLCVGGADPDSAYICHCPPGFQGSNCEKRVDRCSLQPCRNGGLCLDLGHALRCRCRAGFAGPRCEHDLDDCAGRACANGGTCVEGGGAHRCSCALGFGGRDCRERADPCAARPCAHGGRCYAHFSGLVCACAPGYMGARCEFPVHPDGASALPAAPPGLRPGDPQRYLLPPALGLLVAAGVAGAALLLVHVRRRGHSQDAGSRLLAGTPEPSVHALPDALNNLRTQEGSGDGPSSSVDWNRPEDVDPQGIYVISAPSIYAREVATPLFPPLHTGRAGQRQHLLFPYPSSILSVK
The series can be described thus: Affinity determination by Surface Plasmon Resonance (SPR). As to conditions: 25° C., biotinylated human DLL3 immobilized on streptavidin sensor chip, 1:1 binding model; read-out: SPR KD. It counts as binding. The method, boiled down: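 Biotinylated human DLL3 was captured on a streptavidin chip with a reference surface. Compounds at several concentrations were injected at 100 μL/minute in phosphate buffer (137 mM NaCl, 2.7 mM KCl, 0.05% P20, 2% DMSO). Affinity and kinetics came from 1:1 model fits of the sensorgrams.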

Numbered stars: 1 amine (or outer) side, 2 acyl side, 3 side chain; on linkers, the order of the positions; unused ones are H or OH. Bridge positions count the residues as written; N and C are the ends. Square brackets hold non-standard residues; d marks the D form. Side chains are listed from the residue outwards. Peptide text beside a SMILES is read from it. * marks the point of attachment. X1 = O=C(O)CN1CCN(CC(=O)O)CCN(CC(=O)NCCCC[C@@H](NC(=O)CCOCCOCCOCCOCCOCCOCCOCCOCCOCCOCCOCCOCCNC(=O)Cc2ccc(Br)cc2)C(=O)NCCOCCOCCOCCOCCOCCOCCOCCOCC(=O)*)CCN(CC(=O)O)CC1; Ala(piperidin-4-yl) = O=C([C@H](CC1CCN([*:3])CC1)N[*:1])[*:2]; DOTA = O=C(O)CN1CCN(CC(=O)O)CCN(CC(=O)*)CCN(CC(=O)O)CC1; 2Nal = N[C@@H](Cc1ccc2ccccc2c1)C(=O)O; 3Pal = N[C@@H](Cc1cccnc1)C(=O)O; Chg = N[C@H](C(=O)O)C1CCCCC1; Ahx = NCCCCCC(=O)O

Regarding `CC[C@H](C)[C@H](NC(=O)[C@@H](NC(=O)[C@H](Cc1c[nH]c2ccccc12)NC(C)=O)[C@@H](C)O)C(=O)N[C@H]1CSSC[C@@H](C(=O)N[C@@H](Cc2c[nH]c3ccccc23)C(=O)N2CCC[C@H]2C(=O)N[C@H](CCCCNC(=O)COCCOCCOCCOCCOCCOCCOCCOCCNC(=O)[C@@H](CCCCNC(=O)CN2CCN(CC(=O)O)CCN(CC(=O)O)CCN(CC(=O)O)CC2)NC(=O)CCOCCOCCOCCOCCOCCOCCOCCOCCOCCOCCOCCOCCNC(=O)Cc2ccc(Br)cc2)C(N)=O)NC(=O)[C@H](CC(=O)O)NC(=O)[C@H](Cc2c[nH]cn2)NC(=O)[C@H](Cc2ccc3ccccc3c2)NC(=O)[C@H](CC(N)=O)NC(=O)[C@H](CC(N)=O)NC1=O` [compound 252, Ac-W-T-I-C(3)-N-N-(2Nal)-H-D-C(3)-W-P-{D-Lys[PEG8-D-Lys(DOTA)-PEG12-COCH2Ph-4Br]}-NH2] (Ac-WTICNN[2Nal]HDCWP[dK](X1)-NH2; disulfide 4-10), in the series on SHP-77 tumors, the “kidney uptake (% IA/g)” value is given as “D (% IA/g > 10 in kidney)” and the “tumor uptake (% IA/g)” value is reported as “A (0 < % IA/g ≤ 5 in tumor)”.

A word on the Kd: it is the equilibrium constant for the complex coming apart. For the compound `CC[C@H](C)[C@H](NC(=O)[C@@H](NC(=O)[C@H](Cc1c[nH]c2ccccc12)NC(C)=O)[C@@H](C)O)C(=O)N[C@H]1CSSC[C@@H](C(=O)N[C@@H](Cc2c[nH]c3ccccc23)C(=O)N2CCC[C@H]2C(=O)N[C@H](CCCCNC(=O)CN2CCN(CC(=O)O)CCN(CC(=O)O)CCN(CC(=O)O)CC2)C(N)=O)NC(=O)[C@H](CC(=O)O)NC(=O)[C@H](Cc2cnc[nH]2)NC(=O)[C@H](Cc2ccc3ccccc3c2)NC(=O)[C@H](CC(N)=O)NC(=O)[C@H](CCCCN)NC1=O` [compound 259] (Ac-WTICKN[2Nal]HDCWP[dK](DOTA)-NH2; disulfide 4-10), the “% Binding” value with CT26.DLL3 cells is recorded as “B (25<%≤50)”. For the same compound, the dissociation constant (Kd) at human DLL3 is less than 1 nM.

Consider `CC(=O)N[C@@H](Cc1c[nH]c2ccccc12)C(=O)N[C@H](C(=O)N[C@H](C(=O)N[C@H]1CSSC[C@@H](C(=O)N[C@@H](Cc2c[nH]c3ccccc23)C(=O)N2CCC[C@H]2C(=O)N[C@H](CCCCNC(=O)CN2CCN(CC(=O)O)CCN(CC(=O)O)CCN(CC(=O)O)CC2)C(N)=O)NC(=O)[C@H](CC(=O)O)NC(=O)[C@H](Cc2cnc[nH]2)NC(=O)[C@H](Cc2ccc3ccccc3c2)NC(=O)[C@H](CC(N)=O)NC(=O)[C@H](CC2CCNCC2)NC1=O)C1CCCCC1)[C@@H](C)O` [compound 280, Ac-W-T-(Chg)-C(3)-[3-(4-piperidinyl)-Ala]-N-(2Nal)-H-D-C(3)-W-P-[D-Lys(DOTA)]-NH2] (Ac-WT[Chg]C[Ala(piperidin-4-yl)]N[2Nal]HDCWP[dK](DOTA)-NH2; disulfide 4-10), for which, in the series on SHP-77 tumors, the “kidney uptake (% IA/g)” value is listed as “C (0 < % IA/g ≤ 10 in kidney)” and the “tumor uptake (% IA/g)” value is given as “A (0 < % IA/g ≤ 5 in tumor)”. In addition, the Kd on human DLL3 is less than 1 nM.

`CC[C@H](C)[C@H](NC(=O)[C@@H](NC(=O)[C@H](Cc1c[nH]c2ccccc12)NC(C)=O)[C@@H](C)O)C(=O)N[C@H]1CSSC[C@@H](C(=O)N[C@@H](Cc2c[nH]c3ccccc23)C(=O)N2CCC[C@H]2C(=O)N[C@H](CCCCNC(=O)CN2CCN(CC(=O)O)CCN(CC(=O)O)CCN(CC(=O)O)CC2)C(N)=O)NC(=O)[C@H](CC(=O)O)NC(=O)[C@H](Cc2cnc[nH]2)NC(=O)[C@H](Cc2ccc3ccccc3c2)NC(=O)[C@H](CC(N)=O)NC(=O)[C@H](CCCCN)NC1=O` [compound 451, Ac-W-T-I-C(3)-K-N-(2Nal)-H-D-C(3)-W-P-[D-Lys(DOTA)]-CONH2] (Ac-WTICKN[2Nal]HDCWP[dK](DOTA)-NH2; disulfide 4-10): in the series on SHP-77 tumors, the “kidney uptake (% IA/g)” value is recorded as “D (% IA/g > 10 in kidney)” and the “tumor uptake (% IA/g)” value is “A (0 < % IA/g ≤ 5 in tumor)”.

On to `CC[C@H](C)[C@H](NC(=O)[C@@H](NC(=O)[C@H](Cc1c[nH]c2ccccc12)NC(C)=O)[C@@H](C)O)C(=O)N[C@H]1CSSC[C@@H](C(=O)N[C@@H](Cc2c[nH]c3ccccc23)C(=O)N2CCC[C@H]2C(=O)N[C@H](CCCCNC(=O)CN2CCN(CC(=O)O)CCN(CC(=O)O)CCN(CC(=O)O)CC2)C(N)=O)NC(=O)[C@H](CC(=O)O)NC(=O)[C@H](Cc2cnc[nH]2)NC(=O)[C@H](Cc2ccc3ccccc3c2)NC(=O)[C@H](Cc2cccnc2)NC(=O)[C@H](CC(N)=O)NC1=O` [compound 265, Ac-W-T-I-C(3)-N-(3Pya)-(2Nal)-H-D-C(3)-W-P-[D-Lys(DOTA)]-NH2] (Ac-WTICN[3Pal][2Nal]HDCWP[dK](DOTA)-NH2; disulfide 4-10), for which, in the series with SHP-77 tumors, the “kidney uptake (% IA/g)” value was “D (% IA/g > 10 in kidney)” and the “tumor uptake (% IA/g)” value is “A (0 < % IA/g ≤ 5 in tumor)”. Besides, at human DLL3, the dissociation constant (Kd) was less than 1 nM.

Take `CC[C@H](C)[C@H](NC(=O)[C@@H](NC(=O)[C@H](Cc1c[nH]c2ccccc12)NC(C)=O)[C@@H](C)O)C(=O)N[C@H]1CSSC[C@@H](C(=O)N[C@@H](Cc2c[nH]c3ccccc23)C(=O)N2CCC[C@H]2C(=O)N[C@H](CCCCNC(=O)CN2CCN(CC(=O)O)CCN(CC(=O)O)CCN(CC(=O)O)CC2)C(N)=O)NC(=O)[C@H](CC(=O)O)NC(=O)[C@H](CCCCN)NC(=O)[C@H](Cc2ccc3ccccc3c2)NC(=O)[C@H](CC(N)=O)NC(=O)[C@H](CC(N)=O)NC1=O` [compound 237, Ac-W-T-I-C(3)-N-N-(2Nal)-K-D-C(3)-W-P-[D-Lys(DOTA)]-NH2] (Ac-WTICNN[2Nal]KDCWP[dK](DOTA)-NH2; disulfide 4-10): the “% Binding” value with CT26.DLL3 cells was “A (%≤25)”. Further, the Kd at human DLL3 is less than 1 nM.

Turning to `CC[C@H](C)[C@H](NC(=O)[C@@H](NC(=O)[C@H](Cc1c[nH]c2ccccc12)NC(C)=O)[C@@H](C)O)C(=O)N[C@H]1CSSC[C@@H](C(=O)N[C@@H](Cc2c[nH]c3ccccc23)C(=O)N2CCC[C@H]2C(=O)N[C@H](CCCCNC(=O)CCCCCNC(=O)CN2CCN(CC(=O)O)CCN(CC(=O)O)CCN(CC(=O)O)CC2)C(N)=O)NC(=O)[C@H](CC(=O)O)NC(=O)[C@H](Cc2cnc[nH]2)NC(=O)[C@H](Cc2c[nH]c3ccccc23)NC(=O)[C@H](CC(N)=O)NC(=O)[C@H](CC(N)=O)NC1=O` [compound 47, Ac-W-T-I-C(3)-N-N-W-H-D-C(3)-W-P-(D-Lys)-Ahx-DOTA-NH2] (Ac-WTICNNWHDCWP[dK]([Ahx-DOTA])-NH2; disulfide 4-10), in the series with SHP-77 tumors, the “kidney uptake (% IA/g)” value is “D (% IA/g > 10 in kidney)” and the “tumor uptake (% IA/g)” value is “A (0 < % IA/g ≤ 5 in tumor)”. For the same compound, the Kd on human DLL3 fell in the range of 1 to 10 nM.
